Test results published in ChEMBL document CHEMBL3763080, “Design and synthesis of a C7-aryl piperlongumine derivative with potent antimicrotubule and mutant p53-reactivating properties” (Eur J Med Chem, 2016).
Active and inactive are the calls of the source. The rule behind the calls is not given here.

Columns and labels:
SK-BR-3 = assay: Induction of microtubule destabilization in human SKBR3 cells assessed as soluble fraction of protein at 2.5 uM after 24 hrs by Western blot analysis; assay type: cell-based
[1] = system: Cellular tumor antigen p53 (Homo sapiens), P04637 [R175H]; assay: Reactivation of human p53 R175H mutant in human SKBR3 cells assessed as cell cycle arrest at G2/M phase at 2.5 uM after 24 hrs by propidium iodide staining based flow cytometric analysis; conditions: SK-BR-3
[2] = system: Cellular tumor antigen p53 (Homo sapiens), P04637 [R175H]; assay: Reactivation of human p53 R175H mutant in human SKBR3 cells assessed as downregulation of CDC25C expression at 2.5 uM after 24 hrs by Western blot analysis; assay type: cell-based; conditions: SK-BR-3
Tubulin (Bos taurus) = Tubulin (Bos taurus) (UniProt Q6B856+Q862L2+Q862F3); assay: Inhibition of bovine brain tubulin polymerization measured every 1 min for 30 mins by fluorescence assay
[3] = system: Cellular tumor antigen p53 (Homo sapiens), P04637 [R175H]; assay: Reactivation of human p53 R175H mutant in human SKBR3 cells assessed as upregulation of p21cip1 expression after 24 hrs by Western blot analysis; assay type: cell-based; conditions: SK-BR-3
[4] = system: Cellular tumor antigen p53 (Homo sapiens), P04637 [R175H]; assay: Reactivation of p53 R175H mutant in human SKBR3 cells assessed as accumulation of wild type p53 at 5 uM after 12 hrs by DAPI staining based confocal/multiphoton microscopic analysis; assay type: cell-based; conditions: SK-BR-3
[5] = system: Cellular tumor antigen p53 (Homo sapiens), P04637 [R175H]; assay: Reactivation of human p53 R175H mutant in human SKBR3 cells assessed as increase in wild type p53 expression after 12 hrs by immunoprecipitation/Western blot analysis; assay type: cell-based; conditions: SK-BR-3
[6] = system: Cellular tumor antigen p53 (Homo sapiens), P04637 [R175H]; assay: Reactivation of p53 R175H mutant in human SKBR3 cells at 5 uM after 12 hrs by flow cytometric analysis; assay type: cell-based; conditions: SK-BR-3
[7] = system: Cellular tumor antigen p53 (Homo sapiens), P04637 [R175H]; assay: Reactivation of human p53 R175H mutant in human SKBR3 cells assessed as upregulation of Aurora kinase A expression at 2.5 uM after 24 hrs by Western blot analysis; assay type: cell-based; conditions: SK-BR-3
[8] = system: Cellular tumor antigen p53 (Homo sapiens), P04637 [R175H]; assay: Reactivation of human p53 R175H mutant in human SKBR3 cells assessed as decrease in mutant p53 expression after 12 hrs by immunoprecipitation/Western blot analysis; assay type: cell-based; design: scale not given: the % may be the effect or the level left; conditions: SK-BR-3
[9] = system: Cellular tumor antigen p53 (Homo sapiens), P04637 [R175H]; assay: Reactivation of human p53 R175H mutant in human SKBR3 cells assessed as upregulation of PUMA expression after 24 hrs by Western blot analysis; assay type: cell-based; conditions: SK-BR-3
[10] = system: Cellular tumor antigen p53 (Homo sapiens), P04637 [R175H]; assay: Reactivation of human p53 R175H mutant in human SKBR3 cells assessed as upregulation of MDM2 expression after 24 hrs by Western blot analysis; assay type: cell-based; conditions: SK-BR-3
[11] = system: Cellular tumor antigen p53 (Homo sapiens), P04637 [R175H]; assay: Reactivation of human p53 R175H mutant in SKBR3 cells assessed as increase in p53 DNA binding at 5 uM by non biotinylated double stranded DNA probe-based electrophoretic-mobility shift assay; assay type: cell-based; conditions: SK-BR-3
[12] = system: Cellular tumor antigen p53 (Homo sapiens), P04637 [R175H]; assay: Reactivation of human p53 R175H mutant in SKBR3 cells assessed as increase in p53 DNA binding at 5 uM by biotinylated double stranded DNA probe-based electrophoretic-mobility shift assay; assay type: cell-based; conditions: SK-BR-3
[13] = system: Cellular tumor antigen p53 (Homo sapiens), P04637 [R175H]; assay: Reactivation of human p53 R175H mutant in human SKBR3 cells assessed as upregulation of cyclin B1 expression at 2.5 uM after 24 hrs by Western blot analysis; assay type: cell-based; conditions: SK-BR-3
[14] = Cytotoxicity against human SF188 cells assessed as cell viability after 72 hrs by resazurin reduction assay; assay type: functional, cell-based; conditions: SF-188, 72 h
A549 = assay: Cytotoxicity against human A549 cells assessed as cell viability after 72 hrs by resazurin reduction assay; assay type: functional, cell-based; conditions: A549, 72 h
[15] = Cytotoxicity against human HT1080 cells assessed as cell viability after 72 hrs by resazurin reduction assay; assay type: functional, cell-based; conditions: HT-1080, 72 h
HT-29 = assay: Cytotoxicity against human HT-29 cells assessed as cell viability after 72 hrs by resazurin reduction assay; assay type: functional, cell-based; conditions: HT-29, 72 h
T98G = assay: Cytotoxicity against human T98G cells assessed as cell viability after 72 hrs by resazurin reduction assay; assay type: functional, cell-based
[16] = Cytotoxicity against human GBM10 cells assessed as cell viability after 72 hrs by resazurin reduction assay; assay type: functional, cell-based; conditions: GBM10, 72 h
[17] = Cytotoxicity against human SKBR3 cells assessed as cell viability after 72 hrs by resazurin reduction assay; assay type: functional, cell-based; conditions: SK-BR-3, 72 h
MCF7 = assay: Cytotoxicity against human MCF7 cells assessed as cell viability after 72 hrs by resazurin reduction assay; assay type: functional, cell-based; conditions: MCF7, 72 h

Question: With COC(=O)Nc1nc2cc(C(=O)c3cccs3)ccc2[nH]1 as the compound, how does the Activity (SK-BR-3) read?
Answer: Its Activity is “Active”.

Question: For COc1ccc(/C(=C\c2cc(OC)c(OC)c(OC)c2)C(=O)N2CCC=CC2=O)cc1, which Activity [1] is on record?
Answer: The Activity was over 60%.

Question: And the Activity [2]?
Answer: Its Activity is “Active”.

Question: And the inhibition (Tubulin (Bos taurus))?
Answer: The inhibition was “Dose-dependent effect”.

Question: And the Activity [3]?
Answer: The Activity was “Dose-dependent effect”.

Question: And the Activity [4]?
Answer: Its Activity is “Active”.

Question: What about the Activity [5] of the same compound?
Answer: Its Activity is 80%.

Question: And the Activity [6]?
Answer: Its Activity is “Active”.

Question: What about the Activity [7] of the same compound?
Answer: Its Activity is “Active”.

Question: And the Activity [8]?
Answer: Its Activity is 90%.

Question: And the Activity [9]?
Answer: Its Activity is “Dose-dependent effect”.

Question: And the Activity [10]?
Answer: Its Activity is “Dose-dependent effect”.

Question: And the Activity [11]?
Answer: Its Activity is “inactive”.

Question: And the Activity [12]?
Answer: Its Activity is “Active”.

Question: What about the Activity [13] of the same compound?
Answer: The Activity was “Active”.

Question: For COc1ccc(/C=C\c2cc(OC)c(OC)c(OC)c2)cc1O [COMBRETASTATIN A4], which IC50 [14] is on record?
Answer: Its IC50 is 21 nM.

Question: What about the inhibition (Tubulin (Bos taurus)) of the same compound?
Answer: Its inhibition is “Dose-dependent effect”.

Question: What about the IC50 (A549) of the same compound?
Answer: Its IC50 is 3 nM.

Question: And the IC50 [15]?
Answer: Its IC50 is 70 nM.

Question: And the IC50 (HT-29)?
Answer: The IC50 was 420 nM.

Question: And the IC50 (T98G)?
Answer: The IC50 was 11 nM.

Question: What about the IC50 [16] of the same compound?
Answer: Its IC50 is 52 nM.

Question: And the IC50 [17]?
Answer: Its IC50 is 8 nM.

Question: What about the IC50 (MCF7) of the same compound?
Answer: Its IC50 is 42 nM.

Question: For COc1cc(/C=C/C(=O)N2CCC=CC2=O)cc(OC)c1OC [PIPLARTINE], which IC50 [14] is on record?
Answer: Its IC50 is 3900 nM.

Question: What about the IC50 (A549) of the same compound?
Answer: Its IC50 is 6540 nM.

Question: And the IC50 [15]?
Answer: The IC50 was 3430 nM.

Question: What about the IC50 (HT-29) of the same compound?
Answer: The IC50 was 5490 nM.

Question: What about the IC50 (T98G) of the same compound?
Answer: Its IC50 is 4920 nM.

Question: And the IC50 [16]?
Answer: The IC50 was 3810 nM.

Question: And the IC50 [17]?
Answer: The IC50 was 4040 nM.

Question: And the IC50 (MCF7)?
Answer: The IC50 was 6140 nM.
